# Source: patent US6107069A, “Recombinant kynurenine-3-hydroxylase enzyme and process for its preparation” (priority 1996, dated 2000)
# Experiments:
# rat kyn-3-OHase = target: T1, rat kyn-3-OHase (Rattus norvegicus, UniProt O88867); assay: Inhibition of rat kyn-3-OHase expressed in Xenopus laevis oocytes; type: biochemical; settings: homogenates of oocytes injected with the clone, 50 μM L-kyn
# T1 construct: encodes a deduced protein of 478 amino acid residues; expressed in transfected cells; host or cells: Xenopus laevis oocytes injected with cRNA of the cloned rat kidney cDNA (homogenate)
# T1 sequence (O88867 whole entry): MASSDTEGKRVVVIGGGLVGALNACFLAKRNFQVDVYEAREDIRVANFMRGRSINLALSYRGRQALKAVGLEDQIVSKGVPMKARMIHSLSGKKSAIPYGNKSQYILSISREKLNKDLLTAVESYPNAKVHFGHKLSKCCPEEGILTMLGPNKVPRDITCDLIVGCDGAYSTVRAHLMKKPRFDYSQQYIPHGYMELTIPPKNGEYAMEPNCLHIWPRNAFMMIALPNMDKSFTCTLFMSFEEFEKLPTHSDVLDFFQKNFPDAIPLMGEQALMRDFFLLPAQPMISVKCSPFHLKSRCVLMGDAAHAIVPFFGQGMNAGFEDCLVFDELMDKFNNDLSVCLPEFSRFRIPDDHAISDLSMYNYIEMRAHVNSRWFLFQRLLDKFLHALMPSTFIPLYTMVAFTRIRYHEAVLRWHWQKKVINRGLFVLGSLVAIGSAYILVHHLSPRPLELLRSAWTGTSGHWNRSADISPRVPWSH
# Excerpt: Kyn-3-OHase activity was quantified by the conversion of L-kyn to 3-OH-Kyn.
# kyn-3-OHase = settings: systemic administration; cited from earlier work
# brain [1] = settings: peripherally formed; cited from earlier work
# brain [2] = settings: cited from earlier work
# glycine modulatory site = settings: cited from earlier work
# [3] = test system: excitatory amino acid receptor; settings: sites normally activated by glutamate and aspartate; cited from earlier work
# rats = settings: administration to rats; cited from earlier work
compound,measurement,setting,value
"NC(CC(=O)c1ccc(Cl)c(Cl)c1)C(=O)O (racemic) [FCE 28833A, (R,S)-3,4-dichlorobenzoylalanine]",IC50,rat kyn-3-OHase,290 nM
same,endogenous KYNA levels in rat brain tissue,kyn-3-OHase,dose-dependent elevation
same,endogenous kynurenine levels in rat brain tissue,kyn-3-OHase,dose-dependent elevation
Nc1c(O)cccc1C(=O)O [3-hydroxyanthranilic acid],entry into the brain,brain [1],enters the brain very poorly
"O=C(O)c1cc(=O)c2ccccc2[nH]1 [KYNA, kynurenic acid]",properties when applied directly into the brain,brain [2],anticonvulsant and neuroprotective properties
same,affinity to the glycine modulatory site,glycine modulatory site,particularly high affinity
same,excitatory amino acid receptor antagonism,glycine modulatory site,effective excitatory amino acid receptor antagonist
"O=C(O)c1cccnc1C(=O)O [QUIN, quinolinic acid]",activity at excitatory amino acid receptor sites,[3],agonist
same,convulsions,rats,caused convulsions
